Assay results from patent publication US20220362399A1, “COMPOSITIONS AND ARTICLES COMPRISING (NANO)DIAMOND PARTICLES” (Debina Diagnostics, Inc., priority 2019, published 2022).

Columns and labels:
[1] = system: HepG-2 cells; assay: MTT assay (redox state), HepG-2; assay type: cell-based, human; settings: vincristine 50 μg/mL, 24 hours
Description: (§1) The MTT assay was performed as a colorimetric assay using the Cell Proliferation Assay Kit (ThermoFisher Sci), composed of component A (3-(4,5-dimethylthiazol-2-yl)-2,5-diphenyltetrazolium bromide (MTT)) and component B (SDS (sodium dodecyl sulfate)) according to manufacturer's protocol. Briefly, HepG-2 cells and HUVEC were seeded in 96-well plates at a density of 1×10^4 cells per well in media described above for each cell type. Cells were treated or not with FDP-NV-BSA or vincristine (50 μg/mL) for 24 hours. Media (100 μL) were changed to phenol red-free DMEM (Dulbecco's Modified Eagle Medium) (ThermoFisher Sci), containing MTT component A. Plates were incubated for 4 hours, and cells lysed by adding equal volumes of 10% SDS (kit component B). Plates were incubated overnight and read using an ELISA plate reader ELx800 (BioTek, Winooski, Vt., USA) at 562 nm wavelength.

[2] = system: HUVEC; assay: MTT assay (redox state), HUVEC; assay type: cell-based, human; settings: vincristine 50 μg/mL, 24 hours
Description: as §1

[3] = system: HepG-2 cells; assay: Cell counting assay, HepG-2; assay type: cell-based; settings: Homo sapiens, HepG2; vincristine 50 μg/mL, 24 hours; read-out: proliferation, % of controls
Description: (§2) Cell counting was performed. The HepG-2 cell line was purchased from American Type Culture Collection (ATTC) (Manassas, Va., USA). Primary HUVEC were purchased from Lonza and used for experiments between the 5th-8th passages. Cells maintained (37° C. at 5% CO2 atmosphere) in their respective culture media as described above. HepG-2 and HUVEC were ‘seeded’ in 96-well plates (2×10^3 per well in 100 μL medium) and treated or not with FDP-NV-BSA for 24 hours. In each experiment, vincristine (50 μg/mL), a cell-cycle proliferation inhibitor, was added as a positive control. At 24 hrs, the medium was removed, the cells were fixed with 4% paraformaldehyde (PFA, ThermoFisher Sci) and the nuclei were stained using DAPI (4′,6-diamino-2-phenylindole, dihydrochloride, ThermoFisher Sci). The plates were analyzed in a fluorescence microscope (Olympus IX81, Olympus, Tokyo, Japan) by imaging 7 observation fields for each well using 100× magnification and DAPI (blue filter) for nuclei visualization, and TRITC (red filter) for FNDP-NV-BSA visualization. The number of viable cells in each field was determined by analysis of DAPI stained nuclei using ImageJ software (National Institutes of Health, Bethesda, Md., USA) with a digitally set-up cell counter.

[4] = system: HUVEC; assay: Cell counting assay, HUVEC; assay type: cell-based; settings: Homo sapiens, vincristine 50 μg/mL, 24 hours, read-out: proliferation, % of controls
Description: as §2

[5] = system: CHOP and BiP; assay: ER-stress biomarkers (Western blot), HUVEC; assay type: cell-based, human; settings: tunicamycin 25 μg/mL
Description: (§3) HepG-2 cells and HUVEC were treated (or not) with 0.1 mg/mL FDP-NV-BSA as described above. Treatment with vincristine (200 μg/mL) was used as a positive control for apoptosis, and with tunicamycin (25 μg/mL) as a positive control for ER-stress. A rabbit polyclonal antibody against caspase 3 (Cell Sign. Techn), which recognizes both the cleaved and the non-cleaved protein, was used for apoptosis detection. Rabbit mAb (clone C50B12) against BiP and mouse mAb (clone L63F7) against Chop (both from Cell Sign. Techn) were used for the detection of ER-stress. Equal loading of proteins was verified by membrane stripping and re-probing with an anti-actin mouse monoclonal antibody (Sigma Inc.).

[6] = system: CHOP and BiP; assay: ER-stress biomarkers (Western blot), HepG-2; assay type: cell-based, human; settings: tunicamycin 25 μg/mL
Description: as §3

Row | Compound | redox activity, % of normal controls [1] | redox activity, % of normal controls [2] | activity at 50 µg/mL [3] | activity at 50 µg/mL [4] | ER-stress protein activation [5] | ER-stress protein activation [6]
1 | CC[C@]1(O)C[C@H]2CN(CCc3c([nH]c4ccccc34)[C@@](C(=O)OC)(c3cc4c(cc3OC)N(C=O)[C@H]3[C@@](O)(C(=O)OC)[C@H](OC(C)=O)[C@]5(CC)C=CCN6CC[C@]43[C@@H]65)C2)C1 [vincristine] | 25-30% | 25-30% | 50% | 80% | – | –
2 | tunicamycin | – | – | – | – | sensitive | sensitive
